Test results: patent US20050256037A1, “Antibacterial amide macrocyles” (Bayer HealthCare AG, priority 2003, published 2005)
Counter-ions that a name gives are not always drawn. Like-named read-outs stand apart in the source and are kept apart here. Marks after values point to notes of the source that are not given here.

How the values were obtained:
[1] = biological target: S. aureus 133 Translation; assay: S. aureus in vitro transcription-translation assay (S30 extract, firefly luciferase reporter); format: biochemical
From the text: In vitro Transcription-Translation with S. aureus Extracts
Construction of an S. aureus Luciferase Reporter Plasmid
A reporter plasmid which can be used in an in vitro transcription-translation assay from S. aureus is constructed by using the plasmid pBESTluc (Promega Corporation, USA). The E. coli tac promoter present in this plasmid in front of the firefly luciferase is replaced by the capA1 promoter with appropriate Shine-Dalgarno sequence from S. aureus. The primers CAPFor 5′-CGGCCAAGCTTACTCGGAT-[…] […]-3′ and CAPRev 5′-[…]-3′ are used for this. The primer CAPFor contains the capA1 promoter, the ribosome binding site and the 5′ region of the luciferase gene. After PCR using pBESTluc as template it is possible to isolate a PCR product which contains the firefly luciferase gene with the fused capA1 promoter. This is, after restriction with ClaI and HindIII, ligated into the vector pBESTluc which has likewise been digested with ClaI and HindIII. The resulting plasmid pla is able to replicate in E. coli and be used as template in the S. aureus in vitro transcription-traslation assay.
Preparation of S30 Extracts from S. aureus
Six litres of BHI medium are inoculated with a 250 ml overnight culture of an S. aureus strain and allowed to grow at 37° C. until the OD600 run is 2-4. The cells are harvested by centrifugation and washed in 500 ml of cold buffer A (10 mM Tris acetate, pH 8.0, 14 mM Magnesium acetate, 1 mM DTT, 1 M KCl). After renewed centrifugation, the cells are washed in 250 ml of cold buffer A with 50 mM KCl, and the resulting pellets are frozen at −20° C. for 60 min. The pellets are thawed on ice in 30 to 60 min and taken up to a total volume of 99 ml in buffer B (10 mM Tris acetate, pH 8.0, 20 mM Magnesium acetate, 1 mM DTT, 50.mM KCl). 1.5 ml portions of lysostaphin (0.8 mg/ml) in buffer B are introduced into 3 precooled centrifuge cups and each mixed with 33 ml of the cell suspension. The samples are incubated at 37° C., shaking occasionally, for 45 to 60 min, before 150 μl of a 0.5 M DTT solution are added. The lysed cells are centrifuged at 30 000×g and 4° C. for 30 min. The cell pellet is taken up in buffer B and then centrifuged again under the same conditions, and the collected supernatants are combined. The supernatants are centrifuged again under the same conditions, and 0.25 volume of buffer C (670 mM Tris acetate, pH 8.0, 20 mM Magnesium acetate, 7 mM Na3 phosphoenolpyruvate, 7 mM DTT, 5.5 mM ATP, 70 μM amino acids (complete from Promega), 75 μg of pyruvate kinase (Sigma, Germany)/ml are added to the upper ⅔ of the supernatant. The samples are incubated at 37° C. for 30 min. The supernatants are dialysed against 2 l of dialysis buffer (10 mM Tris acetate, pH 8.0, 14 mM Magnesium acetate, 1 mM DTT, 60 mM Potassium acetate) in a dialysis tube with a 3500 Da cut-off with one buffer change at 4° C. overnight. The dialysate is concentrated to a protein concentration of about 10 mg/ml by covering the dialysis tube with cold PEG 8000 powder (Sigma, Germany) at 4° C. The S30 extracts can be stored in aliquots at −70° C.
Determination of the IC50 in the S. aureus in vitro Transcription-Translation Assay Inhibition of protein biosynthesis of the compounds can be shown in an in vitro transcription-translation assay. The assay is based on the cell-free transcription and translation of firefly luciferase using the reporter plasmid pla as template and cell-free S30 extracts obtained from S. aureus. The activity of the resulting luciferase can be detected by luminescence measurement.
The amount of S30 extract or plasmid pla to be employed must be tested anew for each preparation in order to ensure an optimal concentration in the assay. 3 μl of the substance to be tested, dissolved in 5% DMSO, are introduced into an MTP. Then 10 μl of a suitably concentrated plasmid solution pla are added. […]

[2] = tested on: S. aureus RN4220Bi^R; assay: Rate of spontaneous resistance; format: cell-based
Protocol: (§1) Determination of the Rates of Spontaneous Resistance to S. aureus
(§2) The spontaneous resistance rates for the compounds of the invention are determined as follows: the bacterial microbes are cultivated in 30 ml of a minimal medium (18.5 mM Na2HPO4, 5.7 mM KH2PO4, 9.3 mM NH4Cl, 2.8 mM MgSO4, 17.1 mM NaCl, 0.033 μg/ml thiamine hydrochloride, 1.2 μg/ml nicotinic acid, 0.003 μg/ml biotin, 1% glucose, 25 μg/ml of each proteinogenic amino acid with the addition of 0.4% BH broth) at 37° C. overnight, centrifuged at 6000×g for 10 min and resuspended in 2 ml of phosphate-buffered physiological NaCl solution (about 2×10^9 microbes/ml). […] The resulting colonies (cfu) are counted.

[3] = tested on: S. aureus RN4220; assay: Rate of spontaneous resistance; format: cell-based
Protocol: as §1, §2

[4] = tested on: S. aureus T17; assay: Rate of spontaneous resistance; format: cell-based; settings: 10 × MIC
Protocol: as §1, §2

[5] = tested on: S. pneumoniae G9a; assay: Rate of spontaneous resistance; format: cell-based; settings: 5 × MIC; * = colonies with increased MIC (4-8-fold) were isolated
[6] = tested on: E. faecalis ICB 27159; assay: Rate of spontaneous resistance; format: cell-based; settings: * = colonies with increased MIC (4-8-fold) were isolated
[7] = tested on: E. faecium L4001; assay: Rate of spontaneous resistance; format: cell-based

Compound | IC50 ([1]; Table A) [µM] | IC50 ([1]; Table B) [µM] | Rate of spontaneous resistance S. aureus RN4220Bi^R ([2]; 10 × MIC) | Rate of spontaneous resistance S. aureus RN4220 ([3]; 10 × MIC) | Rate of spontaneous resistance S. aureus T17 [4] | Rate of spontaneous resistance S. aureus RN4220Bi^R [2] | Rate of spontaneous resistance S. aureus RN4220 [3] | Rate of spontaneous resistance S. pneumoniae G9a [5] | Rate of spontaneous resistance E. faecalis ICB 27159 ([6]; 5 × MIC) | Rate of spontaneous resistance E. faecalis ICB 27159 ([6]; 10 × MIC) | Rate of spontaneous resistance E. faecium L4001 ([7]; 5 × MIC) | Rate of spontaneous resistance E. faecium L4001 ([7]; 10 × MIC)
CN1C(=O)[C@H](C[C@@H](O)CN)NC(=O)[C@@H](N)Cc2cc(ccc2O)-c2ccc(O)c(c2)C[C@H]1C(=O)NCCN [Example 1, (8S,11S,14S)-14-amino-N-(2-aminoethyl)-11-[(2R)-3-amino-2-hydroxypropyl]-5,17-dihydroxy-9-methyl-10,13-dioxo-9,12-diazatricyclo[14.3.1.1.^2,6]henicosa-1(20),2(21),3,5,16,18-hexaene-8-carboxamide, trihydrochloride] | 0.1 | 0.1 | <6 × 10^−8 | <6 × 10^−8 | <4 × 10^−8 |  |  |  |  |  |  | 
NCCC[C@@H]1NC(=O)[C@@H](N)Cc2cc(ccc2O)-c2ccc(O)c(c2)C[C@@H](C(=O)NCCN)NC1=O [Example 6, (8S,11S,14S)-14-amino-N-(2-aminoethyl)-11-(3-aminopropyl)-5,17-dihydroxy-10,1 3-dioxo-9,12-diazatricyclo[14.3.1.1^2,6]henicosa-1(20),2(21),3,5,16,18-hexaene-8-carboxamide] | 0.5 | 0.5 | <4 × 10^−9 | <6 × 10^−9 |  | <8 × 10^−9* | <6 × 10^−9* | <4 × 10^−8* | <4 × 10^−9* | <4 × 10^−10* | 4 × 10^−8 | <4 × 10^−9
NC[C@H](O)C[C@@H]1NC(=O)[C@@H](N)Cc2cc(ccc2O)-c2ccc(O)c(c2)C[C@@H](C(=O)O)NC1=O [Example 20A, 14(S)-Amino-1(S)-(3-amino-2(R)-hydroxypropyl)-5,17-dihydroxy-10,13-dioxo-9,12-diazatricyclo[14.3.1.1^2,6]henicosa-1(19),2,4,6(21),16(20),17-hexaene-8(S)-carboxylic acid dihydrochloride, reference compound] | 1.5 | 1.5 |  |  |  |  |  |  |  | 4.1 × 10^−6 |  | 
